Measured values as given in US12703728B2, “Interleukin 29 mutant protein” (priority 2020, dated 2026).
Where a chain is given by its changes, count along the chain named. Where two headings read alike, the source gives them in different places.

What was measured:
[1] = system: respiratory syncytial virus; assay: In vitro efficacy on RSV-infected human bronchial epithelial cells (HBEC); assay type: cell-based; details: for Average inhibition rate (%): HBEC, RSV
Method: RSV with a titer of 100, TCID50 (half of the infective dose of tissue culture) was added to each of the activity test wells, culturing the cells in 37° C. and 5% CO2 incubator for 3 days, then RSV RNA was extracted from the cells by using the RNA Extraction Kit (Catlog: 74181, Qiagen), and quantified by RT-qPCR.

novel coronavirus = assay: organism not typed; assay type: cell-based, African green monkey
[2] = Toxic effects on Vero cells by CCK-8 assay; details: African green monkey, Vero cells
Vero cells = assay: Toxic effects on Vero cells by CCK-8 assay; details: 50 μmol/L and below, 48 h, CCK-8
HEK293-ISRE-Luc cells = assay type: cell-based; details: for EC50: HEK293-ISRE-Luc reporter gene method; for EC50/biological activity as compared with IL29 control (in words): reporter gene method
Description: The reporter gene method refers to ligating the promoter of interferon-stimulated response element (ISRE) to alkaline phosphatase cDNA, and transfecting them into HEK293 cells, and evaluating IL29 activity by measuring alkaline phosphatase in supernatant of HEK293 cells after IL29 stimulation (LaFleur D W, Nardelli B, Tsareva T Et al. Interferon-kappa, a novel type I interferon expressed in human keratinocytes. [J]. J. Biol. Chem., 2001, 276:39765-71).
HEK293-ISRE-Luc cells (purchased from National institutes for Food and Drug Control) were allowed to grow adherently in complete culture medium. The cells were passaged at a ratio of 1:4, 2-3 times per week, growing in complete culture medium. The cultured cells were taken to discard the culture medium, and the cells were washed once with PBS and then digested and collected; and the cell suspension containing 3.5×10^5 to 4.5×10^5 cells per 1 ml was prepared with assay culture medium (BIBCO).

[3] = Stability of IL29 mutants at 50° C.; assay type: physicochemical; details: 50° C./75% relative humidity; for Reduction on Day 14 as compared with Point 0 (%): reversed-phase HPLC main peak
Method: (§1) The mobile phase A (acetonitrile:water:trifluoroacetic acid, in the volume ratio of 20:80:0.1) and the mobile phase B (acetonitrile:water:isopropanol:trifluoroacetic acid, in the volume ratio of 70:20:10:0.1) were prepared; and a chromatographic column (XBridge BEH C18 Column, 130A, 5 μm, 4.6 mm*100 mm) was used to analyze each test sample of proteins. The analytical conditions were as follows: flow rate 1.0 ml/min, acquisition time: 65 min, acquisition wavelength 214 nm, column temperature 45° C., and elution gradient as shown in Table 1 below.
Two injections of stock solution of a test sample were loaded in parallel, and the loading volume was set as15 μg-20 μg according to the sample concentration; finally, the purity of the main peak of the test sample was calculated by integrating according to the area normalization method.
The details are shown in Table 5, while the purity values at day 0 and 14 in Table 5 were used to make contrast chromatogram, as shown in FIGS. 3-10.

[4] = Stability of IL29 mutants at 50° C.; assay type: physicochemical; details: 50° C./75% relative humidity, reporter gene method
[5] = assay type: physicochemical; details: 25° C./60% relative humidity/5000 lux
Method: as §1
The mobile phase A (25 mmol/L phosphate buffer, pH 7.0) and mobile phase B (25 mmol/L phosphate buffer, 0.5 mol/L sodium chloride, pH 6.7) were prepared, and a chromatographic column (Thermo ProPac WCX-10 4.0*250 mm) was used to analyze each test sample of proteins. The analytical conditions were as follows: flow rate 0.8 ml/min, acquisition time: 55 min, acquisition wavelength 214 nm, column temperature 25° C., and elution gradient as shown in Table 2 below.
The stability of IL29 mutants was detected under the condition 25° C.±2° C./60% relative humidity ±5% relative humidity/5000±500 lux, samples were taken according to Table 6, and the same method in Example 2 was used to detect the stability of IL29 mutants.

[6] = Nebulization stability test
Method: A jet nebulizer of PARI LCD type and TurboBOY N nebulizer pump from Germany were used for nebulization tests. 2 ml of sample was nebulized, and aerosol was collected in the manner below according to FIG. 11; as for the collected sample, the purity of each test sample of IL29 mutants was detected according to the same method as in Example 2.2.1 by reversed-phase high performance liquid phase, thereby verifying the nebulization stability of each mutant.

[7] = Positive control group, 0.03 μM

O=c1n(Cc2nc3ccccc3n2CCCCO)c2cnccc2n1C1CC1 [BMS-433771]
EC50 ([1]; HBEC cell model, RSV RNA by RT-qPCR): 213 nM
Average inhibition rate (%) ([1]; 10 nM): 31.65%
Average inhibition rate (%) ([1]; 50 nM): 29.30%
Average inhibition rate (%) ([1]; 250 nM): 85.31%
Average inhibition rate (%) ([1]; 1250 nM): 97.91%

CCC(CC)COC(=O)[C@H](C)N[P@](=O)(OC[C@H]1O[C@@](C#N)(c2ccc3c(N)ncnn23)[C@H](O)[C@@H]1O)Oc1ccccc1 [Remdesivir]
Ct Value 1 (novel coronavirus; [7]): 17.05
Ct Value 2 (novel coronavirus; [7]): 16.86
Ct Value 3 (novel coronavirus; [7]): 17.71
Ct Value Mean (novel coronavirus; [7]): 17.21
Ct Value 1 (novel coronavirus; Positive control group, 0.1 μM): 17.63
Ct Value 2 (novel coronavirus; Positive control group, 0.1 μM): 17.75
Ct Value 3 (novel coronavirus; Positive control group, 0.1 μM): 17.57
Ct Value Mean (novel coronavirus; Positive control group, 0.1 μM): 17.65
Ct Value 1 (novel coronavirus; Positive control group, 0.3 μM): 20.83
Ct Value 2 (novel coronavirus; Positive control group, 0.3 μM): 20.76
Ct Value 3 (novel coronavirus; Positive control group, 0.3 μM): 19.75
Ct Value Mean (novel coronavirus; Positive control group, 0.3 μM): 20.45
Ct Value 1 (novel coronavirus; Positive control group, 1 μM): 27.63
Ct Value 2 (novel coronavirus; Positive control group, 1 μM): 26.97
Ct Value 3 (novel coronavirus; Positive control group, 1 μM): 26.91
Ct Value Mean (novel coronavirus; Positive control group, 1 μM): 27.17
Ct Value 1 (novel coronavirus; Positive control group, 3 μM): 30.57
Ct Value 2 (novel coronavirus; Positive control group, 3 μM): 33.96
Ct Value 3 (novel coronavirus; Positive control group, 3 μM): 33.11
Ct Value Mean (novel coronavirus; Positive control group, 3 μM): 32.55
Ct Value 1 (novel coronavirus; Positive control group, 10 μM): 34.85
Ct Value 2 (novel coronavirus; Positive control group, 10 μM): 33.56
Ct Value 3 (novel coronavirus; Positive control group, 10 μM): 34.75
Ct Value Mean (novel coronavirus; Positive control group, 10 μM): 34.39
inhibition at 0.03 µM (novel coronavirus; Vero, Positive control group, 0.03 μM, read-out: Average inhibition rate (%)): 17.5%
inhibition at 0.1 µM (novel coronavirus; Vero, Positive control group, 0.1 μM, read-out: Average inhibition rate (%)): 39.3%
inhibition at 0.3 µM (novel coronavirus; Vero, Positive control group, 0.3 μM, read-out: Average inhibition rate (%)): 91.3%
inhibition at 1 µM (novel coronavirus; Vero, Positive control group, 1 μM, read-out: Average inhibition rate (%)): 99.9%
inhibition at 3 µM (novel coronavirus; Vero, Positive control group, 3 μM, read-out: Average inhibition rate (%)): 100%
inhibition at 10 µM (novel coronavirus; Vero, Positive control group, 10 μM, read-out: Average inhibition rate (%)): 100%
IC50 (novel coronavirus; Vero, positive control group): 120 nM
inhibition against the virus (novel coronavirus; positive control group, concentrations of 0.3 µM and above): ≥ 90%
CC50 at 48 h [2]: > 50000 nM
toxic effect on Vero cells (Vero cells): no obvious toxic effect

B1: IL29 control: IL29 wild-type protein, amino acid sequence SEQ ID NO: 1 with an additional M amino acid at the N-terminal (protein)
chain: KPTTTGKGCHIGRFKSLSPQELASFKKARDALEESLKLKNWSCSSPVFPGNWDLRLLQVRERPVALEAELALTLKVLEAAAGPALEDVLDQPLHTLHHILSQLQACIQPQPTAGPRPRGRLHHWLHRLQEAPKKESAGCLEASVTFNLFRLLTRDLKYVADGNLCLRTSTHPEST
modifications: additional N-terminal Met
EC50 (HEK293-ISRE-Luc cells): 4.783 ng/mL
Main peak (%), reversed-phase HPLC purity ([3]; Day 7): 56.70%
Main peak (%), reversed-phase HPLC purity ([3]; Day 14): 34.46%
Main peak (%), reversed-phase HPLC purity ([3]; Point 0): 85.82%
Reduction on Day 14 as compared with Point 0 (%) [3]: 51.36%

B2: IL29DE (protein)
chain: MKPTTTGKGCHIGRFKSLSPQELASFKKARDALEESLKLKNWSCSSPVFPGNWDLRLLQVRERPVALEAELALTLKVLEAAAGPALEDVLDQPLHTLHHILSQLQACIQPQPTAGPRPRGRLHHWLHRLQEAPKKESAGCLEASVTFNLFRLLTRDLKYVAEGNLCLRTSTHPEST
Relative biological activity (%) (HEK293-ISRE-Luc cells): 282%
EC50 (HEK293-ISRE-Luc cells): 1.697 ng/mL
EC50/biological activity as compared with IL29 control (in words) (HEK293-ISRE-Luc cells): increased by nearly three times
Main peak (%), reversed-phase HPLC purity ([3]; Day 7): 89.35%
Main peak (%), reversed-phase HPLC purity ([3]; Day 14): 77.39%
Main peak (%), reversed-phase HPLC purity ([3]; Point 0): 92.68%
Reduction on Day 14 as compared with Point 0 (%) [3]: 15.29%
biological activity in 14 days at 50° C. [4]: basically unchanged

B3: IL29CS (protein)
chain: B2 chain with E162D, C166S
EC50 (HEK293-ISRE-Luc cells): 4.639 ng/mL
EC50/biological activity as compared with IL29 control (in words) (HEK293-ISRE-Luc cells): essentially no change
Main peak (%), reversed-phase HPLC purity ([3]; Day 7): 64.66%
Main peak (%), reversed-phase HPLC purity ([3]; Day 14): 46.20%
Main peak (%), reversed-phase HPLC purity ([3]; Point 0): 97.03%
Reduction on Day 14 as compared with Point 0 (%) [3]: 50.83%
Ion exchange purity (%) ([5]; day 0): 97.00%
Reversed-phase HPLC purity (%) ([5]; day 0): 95.361%
Ion exchange purity (%) ([5]; day 5): 89.28%
Reversed-phase HPLC purity (%) ([5]; day 5): 90.756%
Ion exchange purity (%) ([5]; day 10): 77.14%
Reversed-phase HPLC purity (%) ([5]; day 10): 84.30%
Reverse-phase purity After nebulization [6]: 85.26%
Reverse-phase purity Before nebulization ([6]; jet nebulizer, 2 ml sample): 96.65%
Difference between purity before and after nebulization ([6]; reverse-phase purity): 10.39%
